Assay results taken from US12583855B2, “RET selective inhibitor, preparation method therefor and use thereof” (SHOUYAO HOLDINGS (BEIJING) CO., LTD., priority 2019, dated 2026).
Where a chain is given by its changes, count along the chain named.

Experiments:
[1] = target: VEGFR2 (Homo sapiens, UniProt P35968); assay: In vitro enzymatic activity assay on VEGFR2 (HTRF); type: biochemical; conditions: GST-VEGFR2 0.1 nM, ATP 2.5 μM
Outline: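 GST-VEGFR2 (0.1 nM final) with 2.5 μM ATP and 1 μM TK peptide substrate in HEPES pH 7.5 buffer with Mg²⁺/Mn²⁺, 1.5 h at 23 °C. HTRF read-out (665/620 nm ratio) after adding TK antibody and streptavidin-XL665. IC50 from 7-point, 5-fold dilution series.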

[2] = Pharmacokinetic data of compounds in male SD rats; type: in vivo; conditions: rat, po, intragastric, 5 mg/kg, suspension MC 0.5%, plasma
Experimental: 6. Pharmacokinetic Data of Compounds
Male SD rats (Beijing Vital River Laboratory Animal Technology Co., Ltd) were divided into groups. 3 in each group, received intragastric administration with the suspension of the test sample (5 mg/kg, suspensions MC 0.5%), respectively. Animals were fasted overnight prior to the experiment from 10 h before dosing to 4 h after dosing. Blood was collected 0.25, 0.5, 1, 2, 4, 6, 8, and 24 h after administration, respectively. After isoflurane anesthesia using a small animal anesthesia machine, 0.3 mL of whole blood samples was taken through the fundus venous plexus, placed in a heparin anticoagulant tube, and were centrifuged at 4° C. 4000 rpm for 5 min plasma was transferred to the centrifuge tube, and stored at −80° C. until analysis. Samples in the plasma were extracted using protein precipitation and the extracts were analyzed by LC/MS.

[3] = test system: TT cells; assay: TT cell proliferation activity (Cell-Titer Glo); type: cell-based; conditions: TT human thyroid carcinoma cells, 120 h
Experimental: 4. Determination of TT Cell Proliferation Activity of Compounds
TT cells, a human thyroid carcinoma cell line, were cultured in Ham's F-12K medium supplemented with 15% fetal bovine serum (FBS, purchased from Biological Industries, BI) and 1% penicillin/streptomycin double antibody (P/S, purchased from Life Technology) under conditions of 37° C. and 5% CO2. TT cells were plated in a 96-well plate (#3917 purchased from Corning) at a concentration of 5000 cells/195 μL/well the day before compound was detected. The compounds were diluted 3-fold with 100% DMSO starting from 10 mM (10 concentrations in total) after 24 h, and 2 μL of each concentration was diluted in 48 μL of Ham's F-12K medium. 5 μL of each diluted compound was added to the plated Cell suspension, the compound and cells were co-incubated in a cell incubator for 120 h (5 days), after the medium was aspirated. 25 μL of Cell-Titer Glo (G7570, purchased from Promega) reagent was added and re-incubated for 5-10 min. Fluorescence value was then read on Envision and the data were calculated using GraphPad Prism software to obtain IC50 values for inhibition of cell proliferation by the compounds.

[4] = target: T1, RET^WT (Homo sapiens, UniProt P07949); assay: In vitro enzymatic activity assay on RET^WT (HTRF); type: biochemical; conditions: GST-RET^WT (658-1114 aa) 0.5 nM, ATP 25 μM
T1 construct: GST-RET^WT (658-1114 aa, final concentration of 0.5 nM)
T1 sequence (P07949 658-1114): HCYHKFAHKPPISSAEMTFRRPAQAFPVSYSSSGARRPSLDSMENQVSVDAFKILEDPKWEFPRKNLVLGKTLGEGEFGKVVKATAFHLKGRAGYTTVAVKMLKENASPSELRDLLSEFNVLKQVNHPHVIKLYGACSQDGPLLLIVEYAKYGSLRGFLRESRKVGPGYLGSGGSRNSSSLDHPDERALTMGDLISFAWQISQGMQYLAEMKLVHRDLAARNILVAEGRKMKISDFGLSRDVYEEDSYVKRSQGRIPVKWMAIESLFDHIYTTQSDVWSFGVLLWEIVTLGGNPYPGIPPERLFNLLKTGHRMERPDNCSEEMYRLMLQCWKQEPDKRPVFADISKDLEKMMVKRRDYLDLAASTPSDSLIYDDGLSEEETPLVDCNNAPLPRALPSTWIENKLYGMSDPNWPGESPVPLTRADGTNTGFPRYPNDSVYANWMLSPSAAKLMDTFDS
Outline: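 Reaction run 2 h at 23 °C in HEPES pH 7.5 buffer with Na3VO4, MgCl2, DTT, Tween 20 and BSA; compounds tested at 7 concentrations (5-fold serial dilution in DMSO from 0.2 mM stock). HTRF detection with TK antibody and streptavidin-XL665; IC50 from curve fitting.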

[5] = target: T2, RET^V804M (Homo sapiens, UniProt P07949, V804M); assay: In vitro enzymatic activity assay on RET^V804M (HTRF); type: biochemical; conditions: GST-RET^V804M (658-1114 aa) 0.02 nM, ATP 1.5 μM
T2 construct: GST-RET^V804M (658-1114 aa, final concentration of 0.02 nM)
T2 sequence (P07949 658-1114 V804M): T1 sequence (P07949 658-1114) with V147M

Chain of VEGFR2 (P35968 20-1356): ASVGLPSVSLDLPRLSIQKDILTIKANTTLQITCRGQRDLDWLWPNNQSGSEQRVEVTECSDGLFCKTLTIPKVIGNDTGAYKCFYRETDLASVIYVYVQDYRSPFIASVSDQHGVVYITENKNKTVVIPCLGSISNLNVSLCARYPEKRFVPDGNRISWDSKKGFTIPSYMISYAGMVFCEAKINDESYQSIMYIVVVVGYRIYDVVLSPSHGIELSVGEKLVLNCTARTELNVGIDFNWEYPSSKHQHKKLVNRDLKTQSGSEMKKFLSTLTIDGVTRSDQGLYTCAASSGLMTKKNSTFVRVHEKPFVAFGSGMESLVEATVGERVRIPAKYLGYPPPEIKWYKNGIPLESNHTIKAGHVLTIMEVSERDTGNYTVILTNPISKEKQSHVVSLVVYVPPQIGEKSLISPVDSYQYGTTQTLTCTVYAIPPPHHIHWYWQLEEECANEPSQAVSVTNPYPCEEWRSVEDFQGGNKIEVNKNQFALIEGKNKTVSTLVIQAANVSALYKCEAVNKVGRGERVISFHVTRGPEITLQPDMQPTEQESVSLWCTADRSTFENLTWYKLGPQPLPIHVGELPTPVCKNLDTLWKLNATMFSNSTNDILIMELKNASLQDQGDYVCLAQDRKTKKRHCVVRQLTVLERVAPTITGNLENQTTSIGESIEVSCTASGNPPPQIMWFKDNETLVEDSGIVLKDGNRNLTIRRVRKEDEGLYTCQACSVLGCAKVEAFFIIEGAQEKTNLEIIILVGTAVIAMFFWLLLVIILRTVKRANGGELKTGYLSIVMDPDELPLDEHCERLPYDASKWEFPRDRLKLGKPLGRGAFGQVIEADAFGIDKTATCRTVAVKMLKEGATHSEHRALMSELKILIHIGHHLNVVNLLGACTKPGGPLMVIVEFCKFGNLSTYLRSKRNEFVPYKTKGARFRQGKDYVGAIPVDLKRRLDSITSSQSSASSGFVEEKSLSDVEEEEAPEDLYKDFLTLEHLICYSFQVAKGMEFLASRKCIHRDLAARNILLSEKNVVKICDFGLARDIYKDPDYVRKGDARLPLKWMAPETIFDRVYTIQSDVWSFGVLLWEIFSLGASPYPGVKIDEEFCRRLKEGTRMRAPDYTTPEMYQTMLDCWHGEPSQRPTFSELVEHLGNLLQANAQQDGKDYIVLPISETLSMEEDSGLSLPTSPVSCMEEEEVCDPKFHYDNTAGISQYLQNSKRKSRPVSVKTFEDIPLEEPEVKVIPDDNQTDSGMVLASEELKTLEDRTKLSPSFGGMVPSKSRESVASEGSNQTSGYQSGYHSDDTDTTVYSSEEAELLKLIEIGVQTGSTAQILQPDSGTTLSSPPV

For `CSc1ccc(CN2CCN(c3ccc(-c4cc(-c5cnn(C)c5)cn5ncc(C#N)c45)cn3)CC2)cn1` [Example 10, 6-(1-methyl-1Hpyrazol-4-yl)-4-(6-(4-((6-(methylthio)pyridin-3-yl)methyl)piperazin-1-yl)pyridin-3-yl)pyrazolo[1,5-a]pyridine-3-carbonitrile], which IC50 [1] is on record?
Its IC50 is 13.9 nM.

And the AUC(0-inf) [2]?
Its AUC(0-inf) is 15300 ng·h/mL.

What about the Cmax [2] of the same compound?
The Cmax was 1490 ng/mL.

What about the Tmax [2] of the same compound?
Its Tmax is 4 h.

And the half-life [2]?
Its half-life is 3.38 h.

And the IC50 [3]?
Its IC50 is 23.8 nM.

With `Cn1cc(-c2cc(-c3ccc(N4CCN(Cc5cccc(S(C)(=O)=O)c5)CC4)nc3)c3c(C#N)cnn3c2)cn1` [Example 15, 6-(1-methyl-1Hpyrazol-4-yl)-4-(6-(4-(3-(methylsulfonyl)benzyl)piperazin-1-yl)pyridin-3-yl)pyrazolo[1,5-a]pyridine-3-carbonitrile] as the compound, how does the IC50 [1] read?
Its IC50 is 11.8 nM.

What about the AUC(0-inf) [2] of the same compound?
Its AUC(0-inf) is 6650 ng·h/mL.

What about the Cmax [2] of the same compound?
The Cmax was 1330 ng/mL.

And the Tmax [2]?
The Tmax was 1.17 h.

What about the half-life [2] of the same compound?
Its half-life is 3.56 h.

And the IC50 [3]?
Its IC50 is 17.8 nM.

Which IC50 [1] does the source give for `Cn1cc(-c2cc(-c3ccc(N4CCN(Cc5ccc(S(C)(=O)=O)cc5)CC4)nc3)c3c(C#N)cnn3c2)cn1` [Example 16, 6-(1-methyl-1Hpyrazol-4-yl)-4-(6-(4-(4-(methylsulfonyl)benzyl)piperazin-1-yl)pyridin-3-yl)pyrazolo[1,5-a]pyridine-3-carbonitrile] here?
The IC50 was 8.95 nM.

What about the AUC(0-inf) [2] of the same compound?
Its AUC(0-inf) is 42700 ng·h/mL.

What about the Cmax [2] of the same compound?
The Cmax was 3790 ng/mL.

And the Tmax [2]?
The Tmax was 4 h.

And the half-life [2]?
Its half-life is 4.08 h.

And the IC50 [3]?
Its IC50 is 36.7 nM.

What does the source list for `Cn1cc(-c2cc(-c3ccc(N4CC5CC(C4)N5Cc4ccccc4S(C)(=O)=O)nc3)c3c(C#N)cnn3c2)cn1` [Example 43, 6-(1-methyl-1Hpyrazol-4-yl)-4-(6-(6-(2-(methylsulfonyl)benzyl)-3,6-diazabicyclo[3.1.1]heptan-3-yl)pyridin-3-yl)pyrazolo[1,5a]pyridine-3-carbonitrile]?
IC50 [4]: 0.132 nM; IC50 [1]: 13.4 nM; IC50 [3]: 16.4 nM; IC50 [5]: 0.507 nM

For `CS(=O)(=O)c1cccc(CN2CCN(c3ccc(-c4cc(-c5cnn(C(F)F)c5)cn5ncc(C#N)c45)cn3)CC2)c1` [Example 47, 6-(1-difluoromethyl-1Hpyrazol-4 yl)-4-(6-(4-(3-(methylsulfonyl)benzyl)piperazin-1-yl)pyridin-3-yl)pyrazolo[1,5-a]pyridine-3-carbonitrile], which IC50 [4] is on record?
The IC50 was 0.343 nM.

What about the IC50 [1] of the same compound?
The IC50 was 16.9 nM.

What about the IC50 [3] of the same compound?
The IC50 was 53.1 nM.

What about the IC50 [5] of the same compound?
Its IC50 is 2.48 nM.

Which results are given for `CS(=O)(=O)c1ccc(CN2C3CC2CN(c2ccc(-c4cc(-c5cn[nH]c5)cn5ncc(C#N)c45)cn2)C3)cc1` [Example 53, 6-(1Hpyrazol-4-yl)-4-(6-(6-(4-(methylsulfonyl)benzyl)-3,6-diazabicyclo 13.1.11 heptan-3-yl)pyridin-3-yl)pyrazolo[1,5-a]pyridine-3-carbonitrile]?
IC50 [4]: 0.072 nM; IC50 [1]: 2.46 nM; IC50 [3]: 14.6 nM; IC50 [5]: 0.807 nM

With `CS(=O)(=O)c1cccc(CN2C3CC2CN(c2ccc(-c4cc(-c5cnn(C(F)F)c5)cn5ncc(C#N)c45)cn2)C3)c1` [Example 55, 6-(1-difluoromethyl-1Hpyrazol-4-yl)-4-(6-(6-(3-(methylsulfonyl)benzyl)-3,6-diazabicyclo[3.1.1]heptan-3-yl)pyridin-3-yl)pyrazolo[1,5-a]pyridine-3-carbonitrile] as the compound, how does the IC50 [4] read?
The IC50 was 0.109 nM.

What about the IC50 [1] of the same compound?
Its IC50 is 19.6 nM.

And the IC50 [3]?
Its IC50 is 15.4 nM.

What about the IC50 [5] of the same compound?
The IC50 was 0.976 nM.

For `CS(=O)(=O)c1ccccc1CN1C2CC1CN(c1ccc(-c3cc(-c4cnn(C(F)F)c4)cn4ncc(C#N)c34)cn1)C2` [Example 56, 6-(1-difluoromethyl-1Hpyrazol-4-yl)-4-(6-(6-(2-(methylsulfonyl)benzyl)-3,6-diazabicyclo[3.1.1]heptan-3-yl)pyridin-3-yl)pyrazolo[1,5-a]pyridine-3-carbonitrile], which IC50 [4] is on record?
The IC50 was 0.08 nM.

What about the IC50 [1] of the same compound?
Its IC50 is 59 nM.

And the IC50 [3]?
Its IC50 is 39.9 nM.

What about the IC50 [5] of the same compound?
The IC50 was 1.78 nM.

Which IC50 [4] does the source give for `CS(=O)(=O)c1cccc(CN2C3CC2CN(c2ccc(-c4cc(N5CC(F)(F)C5)cn5ncc(C#N)c45)cn2)C3)c1` [Example 64, 6-(3,3-difluoroazetidin-1-yl)-4-(6-(6-(3-(methylsulfonyl)benzyl)-3,6-diazabicyclo[3.1.1]heptan-3-yl)pyridin-3-yl)pyrazolo[1,5-a]pyridine-3-carbonitrile] here?
Its IC50 is 0.493 nM.

What about the IC50 [1] of the same compound?
Its IC50 is 15.5 nM.

And the IC50 [3]?
Its IC50 is 42.2 nM.

What about the IC50 [5] of the same compound?
The IC50 was 1.71 nM.

What does the source list for `Cn1cc(-c2cc(-c3ccc(N4CC5CC(C4)N5Cc4ccc(S(C)(=O)=O)nc4)nc3)c3c(C#N)cnn3c2)cn1` [Example 76, 6-(1-(methyl)-1Hpyrazol-4-yl)-4-(6-(6-((6-(methylsulfonyl)pyridin-3-yl)methyl)-3,6-diazabicyclo[3.1.1]heptan-3-yl)pyridin-3-yl)pyrazolo[1,5-a]pyridine-3-carbonitrile]?
IC50 [4]: 0.296 nM; IC50 [1]: 2.81 nM; IC50 [3]: 16.6 nM; IC50 [5]: 0.479 nM

For `CS(=O)(=O)c1ccc(CN2C3CC2CN(c2ccc(-c4cc(-c5cnn(C(F)F)c5)cn5ncc(C#N)c45)cn2)C3)cn1` [Example 77, 6-(1-(difluoromethyl)-1Hpyrazol-4-yl)-4-(6-(6-((6-(methylsulfonyl)pyridin-3-yl)methyl)-3,6-diazabicyclo[3.1.1]heptan-3-yl)pyridin-3-yl)pyrazolo[1,5-a]pyridine-3-carbonitrile], which IC50 [4] is on record?
Its IC50 is 0.468 nM.

And the IC50 [1]?
Its IC50 is 7.56 nM.

What about the IC50 [3] of the same compound?
Its IC50 is 23.1 nM.

And the IC50 [5]?
Its IC50 is 0.791 nM.

Which IC50 [4] does the source give for `CS(=O)(=O)c1ccc(CN2C3CC2CN(c2ccc(-c4cc(-c5cnn(C(F)F)c5)cn5ncc(C#N)c45)cn2)C3)nc1` [Example 78, 6-(1-(difluoromethyl)-1Hpyrazol-4-yl)-4-(6-(6-((5-(methylsulfonyl)pyridin-2-yl)methyl)-3,6-diazabicyclo[3.1.1]heptan-3-yl)pyridine-3-yl)pyrazolo[1,5-a]pyridine-3-carbonitrile] here?
Its IC50 is 0.387 nM.

And the IC50 [1]?
Its IC50 is 10.4 nM.

And the IC50 [3]?
Its IC50 is 28.2 nM.

And the IC50 [5]?
The IC50 was 1.04 nM.

Which IC50 [4] does the source give for `Cn1cc(-c2cc(-c3ccc(N4CC5CC(C4)N5Cc4ccc(S(C)(=O)=O)cn4)nc3)c3c(C#N)cnn3c2)cn1` [Example 79, 6-(1-(methyl)-1Hpyrazol-4-yl)-4-(6-(6-((5-(methylsulfonyl)pyridin-2-yl)methyl)-3,6-diazabicyclo[3.1.1]heptan-3-yl)pyridin-3-yl)pyrazolo[1,5-a]pyridine-3-carbonitrile] here?
Its IC50 is 0.331 nM.

What about the IC50 [1] of the same compound?
Its IC50 is 5.21 nM.

What about the IC50 [3] of the same compound?
The IC50 was 21.3 nM.

What about the IC50 [5] of the same compound?
The IC50 was 0.64 nM.
